From PubChem BioAssay AID1963981 (Molecular Pharmacology Branch, DTP, NCI, 2024)

system: 354836-022-R-J1-PDC multicell spheroid viability; assay: Anticancer human tumor 354836-022-R-J1-PDC patient-derived head and neck squamous cell carcinoma cell line growth inhibition [PI3K]; conditions: second compound 0.0316 µM; first compound 1 µM; stronger effect = lower value
Summary of the method: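 We assembled tumor spheroids that included a stromal compartment of HUVEC and MSCs, then exposed them to targeted agents alone and together with PI3K pathway inhibitors. Concentration series descended by half-log from clinically achievable Cmax levels. Viability served as the endpoint.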
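Also: spheroids exposed to agents for seven days before the viability read.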

Q: Which viability, T/C does the source give for Cn1ncc(Cl)c1-c1cc(C(=O)NC(CN)Cc2cccc(F)c2)sc1Cl (stereo unspecified) + CC(Nc1ncnc2nc[nH]c12)c1cc2cccc(Cl)c2c(=O)n1-c1ccccc1 here?
A: 15.1%

same assay, conditions: second compound 0.0316 µM; first compound 3.16 µM; stronger effect = lower value

Q: Which viability, T/C does the source give for C#Cc1c(F)ccc2cc(O)cc(-c3ncc4c(N5CC6CCC(C5)N6)nc(OCC56CCCN5CC(F)C6)nc4c3F)c12 (stereo unspecified) + COc1c(OCCCN2CCOCC2)ccc2c3n(c(=NC(=O)c4cnc(N)nc4)nc12)CCN3 here?
A: 74.1%

Q: CC(Cn1ccc(-c2ccc(C#N)c(Cl)c2)n1)NC(=O)c1cc(C(C)O)[nH]n1 (stereo unspecified) + CC(Nc1ccc2c(c1)OCCn1cc(N3C(=O)OCC3C(F)F)nc1-2)C(N)=O was tested. Which viability, T/C did it give?
A: 91.1%

Q: How did the viability, T/C turn out when CNC(=O)c1ccc(N2C(=S)N(c3ccc(C#N)c(C(F)(F)F)c3)C(=O)C2(C)C)cc1F + Cc1nc(NC(=O)N2CCCC2C(N)=O)sc1-c1ccnc(C(C)(C)C(F)(F)F)c1 was run?
A: 123%

Q: How did the viability, T/C turn out when Cn1ncc(Cl)c1-c1cc(C(=O)NC(CN)Cc2cccc(F)c2)sc1Cl (stereo unspecified) + CC(Nc1ncnc2nc[nH]c12)c1cc2cccc(Cl)c2c(=O)n1-c1ccccc1 was run?
A: 5.4%

same assay, conditions: second compound 0.0316 µM; first compound 10 µM; stronger effect = lower value

Q: Which viability, T/C does the source give for C#Cc1c(F)ccc2cc(O)cc(-c3ncc4c(N5CC6CCC(C5)N6)nc(OCC56CCCN5CC(F)C6)nc4c3F)c12 (stereo unspecified) + COc1c(OCCCN2CCOCC2)ccc2c3n(c(=NC(=O)c4cnc(N)nc4)nc12)CCN3 here?
A: 77.1%

Q: With CC(Cn1ccc(-c2ccc(C#N)c(Cl)c2)n1)NC(=O)c1cc(C(C)O)[nH]n1 (stereo unspecified) + CC(Nc1ccc2c(c1)OCCn1cc(N3C(=O)OCC3C(F)F)nc1-2)C(N)=O as the compound, how does the viability, T/C read?
A: 81.8%

Q: Which viability, T/C does the source give for CNC(=O)c1ccc(N2C(=S)N(c3ccc(C#N)c(C(F)(F)F)c3)C(=O)C2(C)C)cc1F + Cc1nc(NC(=O)N2CCCC2C(N)=O)sc1-c1ccnc(C(C)(C)C(F)(F)F)c1 here?
A: 108%

Q: For Cn1ncc(Cl)c1-c1cc(C(=O)NC(CN)Cc2cccc(F)c2)sc1Cl (stereo unspecified) + CC(Nc1ncnc2nc[nH]c12)c1cc2cccc(Cl)c2c(=O)n1-c1ccccc1, which viability, T/C is on record?
A: 1.88%

same assay, conditions: second compound 0.1 µM; first compound 0.0316 µM; stronger effect = lower value

Q: C#Cc1c(F)ccc2cc(O)cc(-c3ncc4c(N5CC6CCC(C5)N6)nc(OCC56CCCN5CC(F)C6)nc4c3F)c12 (stereo unspecified) + COc1c(OCCCN2CCOCC2)ccc2c3n(c(=NC(=O)c4cnc(N)nc4)nc12)CCN3 was tested. Which viability, T/C did it give?
A: 56.1%

Q: CC(Cn1ccc(-c2ccc(C#N)c(Cl)c2)n1)NC(=O)c1cc(C(C)O)[nH]n1 (stereo unspecified) + CC(Nc1ccc2c(c1)OCCn1cc(N3C(=O)OCC3C(F)F)nc1-2)C(N)=O was tested. Which viability, T/C did it give?
A: 77.2%

Q: With CNC(=O)c1ccc(N2C(=S)N(c3ccc(C#N)c(C(F)(F)F)c3)C(=O)C2(C)C)cc1F + Cc1nc(NC(=O)N2CCCC2C(N)=O)sc1-c1ccnc(C(C)(C)C(F)(F)F)c1 as the compound, how does the viability, T/C read?
A: 95.5%

Q: With Cn1ncc(Cl)c1-c1cc(C(=O)NC(CN)Cc2cccc(F)c2)sc1Cl (stereo unspecified) + CC(Nc1ncnc2nc[nH]c12)c1cc2cccc(Cl)c2c(=O)n1-c1ccccc1 as the compound, how does the viability, T/C read?
A: 70.7%

same assay, conditions: second compound 0.1 µM; first compound 0.1 µM; stronger effect = lower value

Q: For C#Cc1c(F)ccc2cc(O)cc(-c3ncc4c(N5CC6CCC(C5)N6)nc(OCC56CCCN5CC(F)C6)nc4c3F)c12 (stereo unspecified) + COc1c(OCCCN2CCOCC2)ccc2c3n(c(=NC(=O)c4cnc(N)nc4)nc12)CCN3, which viability, T/C is on record?
A: 67.8%

Q: CC(Cn1ccc(-c2ccc(C#N)c(Cl)c2)n1)NC(=O)c1cc(C(C)O)[nH]n1 (stereo unspecified) + CC(Nc1ccc2c(c1)OCCn1cc(N3C(=O)OCC3C(F)F)nc1-2)C(N)=O was tested. Which viability, T/C did it give?
A: 91.9%

Q: With CNC(=O)c1ccc(N2C(=S)N(c3ccc(C#N)c(C(F)(F)F)c3)C(=O)C2(C)C)cc1F + Cc1nc(NC(=O)N2CCCC2C(N)=O)sc1-c1ccnc(C(C)(C)C(F)(F)F)c1 as the compound, how does the viability, T/C read?
A: 93.4%

Q: With Cn1ncc(Cl)c1-c1cc(C(=O)NC(CN)Cc2cccc(F)c2)sc1Cl (stereo unspecified) + CC(Nc1ncnc2nc[nH]c12)c1cc2cccc(Cl)c2c(=O)n1-c1ccccc1 as the compound, how does the viability, T/C read?
A: 61.4%

same assay, conditions: second compound 0.1 µM; first compound 0.316 µM; stronger effect = lower value

Q: C#Cc1c(F)ccc2cc(O)cc(-c3ncc4c(N5CC6CCC(C5)N6)nc(OCC56CCCN5CC(F)C6)nc4c3F)c12 (stereo unspecified) + COc1c(OCCCN2CCOCC2)ccc2c3n(c(=NC(=O)c4cnc(N)nc4)nc12)CCN3 was tested. Which viability, T/C did it give?
A: 52.9%

Q: With CC(Cn1ccc(-c2ccc(C#N)c(Cl)c2)n1)NC(=O)c1cc(C(C)O)[nH]n1 (stereo unspecified) + CC(Nc1ccc2c(c1)OCCn1cc(N3C(=O)OCC3C(F)F)nc1-2)C(N)=O as the compound, how does the viability, T/C read?
A: 83.7%

Q: How did the viability, T/C turn out when CNC(=O)c1ccc(N2C(=S)N(c3ccc(C#N)c(C(F)(F)F)c3)C(=O)C2(C)C)cc1F + Cc1nc(NC(=O)N2CCCC2C(N)=O)sc1-c1ccnc(C(C)(C)C(F)(F)F)c1 was run?
A: 111%

Q: With Cn1ncc(Cl)c1-c1cc(C(=O)NC(CN)Cc2cccc(F)c2)sc1Cl (stereo unspecified) + CC(Nc1ncnc2nc[nH]c12)c1cc2cccc(Cl)c2c(=O)n1-c1ccccc1 as the compound, how does the viability, T/C read?
A: 36.3%
